pIC50: −log10 of the molar value.

For one test, the target named is Integrin alpha-IIb/beta-3 (Homo sapiens, UniProt P05106+P08514). Kind of test: Inhibition of FITC-labeled fibrinogen binding to integrin alpha2bbeta3 receptor in human platelets by flow cytometry.
Integrin alpha-IIb/beta-3, sequence (P05106 27-788 limits assumed): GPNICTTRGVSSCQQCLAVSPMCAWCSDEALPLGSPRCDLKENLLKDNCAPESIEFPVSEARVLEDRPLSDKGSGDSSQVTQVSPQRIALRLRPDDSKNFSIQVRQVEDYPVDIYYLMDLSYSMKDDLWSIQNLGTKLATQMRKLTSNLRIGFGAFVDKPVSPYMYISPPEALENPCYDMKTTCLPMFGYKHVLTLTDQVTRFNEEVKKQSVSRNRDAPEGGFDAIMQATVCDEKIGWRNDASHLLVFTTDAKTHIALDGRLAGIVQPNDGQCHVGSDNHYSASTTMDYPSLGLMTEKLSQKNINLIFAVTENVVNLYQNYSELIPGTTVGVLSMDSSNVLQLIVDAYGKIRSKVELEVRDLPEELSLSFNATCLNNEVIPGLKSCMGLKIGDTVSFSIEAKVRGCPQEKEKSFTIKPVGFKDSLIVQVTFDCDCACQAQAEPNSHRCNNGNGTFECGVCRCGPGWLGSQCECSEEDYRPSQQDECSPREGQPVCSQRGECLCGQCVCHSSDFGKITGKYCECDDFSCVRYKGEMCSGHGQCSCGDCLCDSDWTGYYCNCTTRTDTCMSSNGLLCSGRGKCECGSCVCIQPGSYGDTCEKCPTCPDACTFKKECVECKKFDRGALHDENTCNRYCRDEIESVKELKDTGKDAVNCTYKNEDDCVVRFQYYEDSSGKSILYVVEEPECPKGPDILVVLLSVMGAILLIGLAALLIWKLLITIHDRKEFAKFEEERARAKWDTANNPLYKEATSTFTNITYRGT
Integrin alpha-IIb/beta-3, sequence (P08514 32-887 limits assumed): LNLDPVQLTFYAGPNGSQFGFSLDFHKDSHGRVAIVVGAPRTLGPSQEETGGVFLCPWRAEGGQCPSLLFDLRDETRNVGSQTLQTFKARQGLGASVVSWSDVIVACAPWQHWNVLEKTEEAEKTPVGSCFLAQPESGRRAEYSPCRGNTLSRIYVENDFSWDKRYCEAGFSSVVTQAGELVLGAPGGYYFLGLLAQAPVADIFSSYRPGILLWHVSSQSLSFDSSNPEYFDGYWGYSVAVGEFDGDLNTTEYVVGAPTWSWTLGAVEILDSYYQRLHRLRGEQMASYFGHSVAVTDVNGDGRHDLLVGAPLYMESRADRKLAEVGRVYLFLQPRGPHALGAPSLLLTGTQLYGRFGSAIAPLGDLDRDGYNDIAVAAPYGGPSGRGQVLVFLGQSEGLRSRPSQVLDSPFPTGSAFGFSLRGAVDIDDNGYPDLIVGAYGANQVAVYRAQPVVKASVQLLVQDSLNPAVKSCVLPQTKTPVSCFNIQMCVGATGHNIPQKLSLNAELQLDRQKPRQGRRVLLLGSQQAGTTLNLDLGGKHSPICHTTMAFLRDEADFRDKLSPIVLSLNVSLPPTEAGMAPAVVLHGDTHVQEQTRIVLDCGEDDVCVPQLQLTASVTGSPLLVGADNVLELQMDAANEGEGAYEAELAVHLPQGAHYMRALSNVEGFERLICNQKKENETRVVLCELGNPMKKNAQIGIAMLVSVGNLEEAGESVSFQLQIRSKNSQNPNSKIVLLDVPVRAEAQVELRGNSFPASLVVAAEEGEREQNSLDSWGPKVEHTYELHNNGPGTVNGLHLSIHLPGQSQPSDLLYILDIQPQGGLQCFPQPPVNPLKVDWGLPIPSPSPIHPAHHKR
Integrin alpha-IIb/beta-3, sequence (P08514 891-1039 limits assumed): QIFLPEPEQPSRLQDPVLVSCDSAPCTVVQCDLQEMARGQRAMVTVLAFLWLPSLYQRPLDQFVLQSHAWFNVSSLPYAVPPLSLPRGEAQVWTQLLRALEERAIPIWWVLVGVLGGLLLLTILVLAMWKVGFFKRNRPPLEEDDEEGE
`O=C(O)CCN1Cc2ccc(NC(=O)c3ccc4c(c3)CNCC4)cc2C1=O` showed a negative logarithm of the IC50 (pIC50) of 8.19.

The compound `O=C(O)CN1Cc2ccc(NC(=O)c3ccc4c(c3)CNCC4)cc2C1=O` gave a pIC50 of 5.92.

Consider `CC(CC(=O)O)N1Cc2ccc(NC(=O)c3ccc4c(c3)CNCC4)cc2C1=O` (racemic), for which the pIC50 is 8.19.

Consider `CC(CC(=O)O)N1Cc2ccc(NC(=O)c3ccc(N4CCNCC4)cc3)cc2C1=O` (racemic), for which the pIC50 was 7.43.

`O=C(O)CCN1Cc2ccc(NC(=O)CCCC3CCNCC3)cc2C1=O`: the pIC50 is 8.26.

On to `CC(CC(=O)O)N1Cc2ccc(NC(=O)CCCC3CCNCC3)cc2C1=O` (racemic), for which the negative logarithm of the IC50 (pIC50) is 6.46.

The compound `O=C(O)CCN1Cc2ccc(NC(=O)c3ccc(C4CCNCC4)cc3)cc2C1=O` showed a pIC50 of 8.17.

Regarding `O=C(O)CN1Cc2ccc(NC(=O)c3ccc(C4CCNCC4)cc3)cc2C1=O`, the pIC50 was 6.57.

A further test deals with Platelet. Kind of test: Inhibition of ADP-induced human platelet aggregation in platelet-rich plasma by Born's method. Type of test: functional.
Consider `O=C(O)CCN1Cc2ccc(NC(=O)CC3CCNCC3)cc2C1=O`, for which the pIC50 was 5.13.

As to `O=C(O)CN1Cc2ccc(NC(=O)CC3CCNCC3)cc2C1=O`, the pIC50 was 4.29.

`CC(CC(=O)O)N1Cc2ccc(NC(=O)CC3CCNCC3)cc2C1=O` (racemic): the pIC50 was 5.57.

Take `O=C(O)CCN1Cc2ccc(NC(=O)c3cccc(N4CCNCC4)c3)cc2C1=O`: the pIC50 was 5.57.

`CC(CC(=O)O)N1Cc2ccc(NC(=O)c3cccc(N4CCNCC4)c3)cc2C1=O` (racemic) had a pIC50 of 4.21.

The compound `O=C(O)CN1Cc2ccc(NC(=O)c3ccc(N4CCNCC4)cc3)cc2C1=O` had a pIC50 of 5.48.

With `CCCCS(=O)(=O)N[C@@H](Cc1ccc(OCCCCC2CCNCC2)cc1)C(=O)O` [TIROFIBAN], the pIC50 is 7.49.

For `O=C(O)CCCN1Cc2ccc(NC(=O)CC3CCNCC3)cc2C1=O`, the pIC50 is 5.74.

(Values after ChEMBL document CHEMBL2406920, “Synthesis, biological evaluation, X-ray molecular structure and molecular docking studies of RGD mimetics containing 6-amino-2,3-dihydroisoindolin-1-one fragment as ligands of integrin αIIbβ₃” (Bioorg Med Chem, 2013).)
